Data: patent US10414731B2, “Substituted oxopyridine derivatives” (priority 2014, dated 2019)
Values belong to the compound of their own block, whether it stands above or below them.

Assays:
human plasma kallikrein = human plasma kallikrein (Homo sapiens (Human), UniProt P03952); test: Determination of the plasma kallikrein activity (fluorogenic peptide substrate); assay type: biochemical; details: plasma kallikrein from Kordia, substrate H-Pro-Phe-Arg-AMC, 22° C.
Procedure: (§1) To determine the plasma kallikrein inhibition of the substances according to the invention, a biochemical test system is used which utilizes the reaction of a peptidic plasma kallikrein substrate to determine the enzymatic activity of human plasma kallikrein. Here, plasma kallikrein cleaves from the peptic plasma kallikrein substrate the C-terminal aminomethylcoumarin (AMC), the fluorescence of which is measured. The determinations are carried out in microtitre plates.
Test substances are dissolved in dimethyl sulphoxide and serially diluted in dimethyl sulphoxide (3000 μM to 0.0078 μM; resulting final concentrations in the test: 50 μM to 0.00013 μM). 1 μl of the diluted substance solutions is placed into each of the wells of white microtitre plates from Greiner (384 wells). 20 μl of assay buffer (50 mM Tris/HCl pH 7.4; 100 mM sodium chloride solution; 5 mM calcium chloride solution; 0.1% of bovine serum albumin) and 20 μl of plasma kallikrein from Kordia (0.6 nM in assay buffer) are then added successively. After […] of incubation, the enzyme reaction is started by addition of 20 μl of the substrate H-Pro-Phe-Arg-AMC dissolved in assay buffer (10 μM in assay buffer) from Bachem, the mixture is incubated at room temperature (22° C.) for […] and fluorescence is then measured (excitation: 360 nm, emission: 460 nm). The measured emissions of the test batches with test substance are compared to those of control batches without test substance (only dimethyl sulphoxide instead of test substance in dimethyl sulphoxide), and IC50 values are calculated from the concentration/activity relationships.

human factor XIa = human factor XIa (Homo sapiens (Human), UniProt P03951); test: Measurement of FXIa inhibition (fluorogenic peptide substrate); assay type: biochemical; details: factor XIa from Kordia, substrate Boc-Glu(OBzl)-Ala-Arg-AMC, 22° C., 30 min
Sequence of human factor XIa (P03951 whole entry, looked up): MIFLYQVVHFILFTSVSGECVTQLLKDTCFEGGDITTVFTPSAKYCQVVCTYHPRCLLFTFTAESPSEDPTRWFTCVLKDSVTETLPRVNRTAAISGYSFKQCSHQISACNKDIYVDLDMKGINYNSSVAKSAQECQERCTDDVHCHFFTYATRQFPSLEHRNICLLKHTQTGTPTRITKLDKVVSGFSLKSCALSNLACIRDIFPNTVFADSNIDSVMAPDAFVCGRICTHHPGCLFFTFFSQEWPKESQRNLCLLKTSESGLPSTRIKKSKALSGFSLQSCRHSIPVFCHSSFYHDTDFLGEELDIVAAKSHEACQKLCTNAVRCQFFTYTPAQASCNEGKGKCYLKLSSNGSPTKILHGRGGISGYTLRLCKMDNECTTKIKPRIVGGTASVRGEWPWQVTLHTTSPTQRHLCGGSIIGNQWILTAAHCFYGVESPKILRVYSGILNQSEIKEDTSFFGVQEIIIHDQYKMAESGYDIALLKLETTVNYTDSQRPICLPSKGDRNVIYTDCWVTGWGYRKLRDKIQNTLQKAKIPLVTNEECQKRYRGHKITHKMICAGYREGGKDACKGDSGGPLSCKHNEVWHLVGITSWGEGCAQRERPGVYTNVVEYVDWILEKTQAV
Sequence of human factor XIa (P03951 whole entry partner, looked up): as the sequence (P03951 whole entry, looked up) above
Procedure: as §1, with “The factor XIa” for “To determine the plasma kallikrein”, “invention is determined using” for “invention,”, “system” for “system is used”, “factor XIa” for “plasma kallikrein”, “factor XIa.” for “plasma kallikrein.”
1 μl of the diluted substance solutions is placed into each of the wells of white microtitre plates from Greiner (384 wells). […] After […] of incubation, the enzyme reaction is started by addition of 20 μl of the factor XIa substrate Boc-Glu(OBz1)-Ala-Arg-AMC dissolved in assay buffer (10 μM in assay buffer) from Bachem, the mixture is incubated at room temperature (22° C.) for 30 min and fluorescence is then measured (excitation: 360 nm, emission: 460 nm). The measured emissions of the test batches with test substance are compared to those of control batches without test substance (only dimethyl sulphoxide instead of test substance in dimethyl sulphoxide), and IC50 values are calculated from the concentration/activity relationships.

Sequence of human plasma kallikrein (P03952 whole entry, looked up): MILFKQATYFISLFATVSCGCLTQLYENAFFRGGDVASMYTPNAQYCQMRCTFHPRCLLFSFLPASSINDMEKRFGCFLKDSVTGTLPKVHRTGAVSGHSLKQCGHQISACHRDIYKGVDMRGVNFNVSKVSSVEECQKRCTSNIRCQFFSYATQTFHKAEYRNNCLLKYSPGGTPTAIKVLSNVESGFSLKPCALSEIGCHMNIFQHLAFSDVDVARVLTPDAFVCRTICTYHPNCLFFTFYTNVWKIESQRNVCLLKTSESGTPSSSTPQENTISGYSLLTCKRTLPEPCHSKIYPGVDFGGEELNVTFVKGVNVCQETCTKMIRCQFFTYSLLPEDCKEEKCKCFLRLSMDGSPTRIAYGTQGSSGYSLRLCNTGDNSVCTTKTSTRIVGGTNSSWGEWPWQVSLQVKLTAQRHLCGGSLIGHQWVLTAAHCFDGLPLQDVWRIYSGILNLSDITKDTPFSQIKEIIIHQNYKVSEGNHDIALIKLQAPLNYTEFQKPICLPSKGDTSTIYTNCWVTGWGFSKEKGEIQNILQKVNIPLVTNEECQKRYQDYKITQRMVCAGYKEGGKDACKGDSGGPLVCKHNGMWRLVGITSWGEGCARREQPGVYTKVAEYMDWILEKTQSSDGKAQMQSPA
Sequence of human plasma kallikrein (P03952 whole entry partner, looked up): as the sequence (P03952 whole entry, looked up) above

Compound: COc1cn(C(C[C@@H]2CCCCO2)C(=O)Nc2ccc(C(=O)OC(C)[C@H](N)C(=O)O)cc2)c(=O)cc1-c1cc(Cl)ccc1C#N (single isomer, unassigned) [Example 1]
- IC50 (human plasma kallikrein): 9.1 nM
- IC50 (human factor XIa): 2 nM

Compound: CCC(C(=O)Nc1ccc(C(=O)OC(C)[C@H](N)C(=O)O)cc1)n1cc(OC)c(-c2cc(Cl)ccc2C#N)cc1=O (single isomer, unassigned) [Example 2, O-[4-({2-[4-(5-Chloro-2-cyanophenyl)-5-methoxy-2-oxopyridin-1(2H)-yl]butanoyl}amino)-benzoyl]-L-threonine]
- IC50 (human plasma kallikrein): 93 nM
- IC50 (human factor XIa): 54 nM

Compound: CCC(C(=O)Nc1ccc(C(=O)OC[C@](C)(N)C(=O)O)cc1)n1cc(OC)c(-c2cc(Cl)ccc2C#N)cc1=O (single isomer, unassigned) [Example 3, O-[4-({2-[4-(5-Chloro-2-cyanophenyl)-5-methoxy-2-oxopyridin-1(2H)-yl]butanoyl}amino)-benzoyl]-2-methyl-L-serine]
- IC50 (human plasma kallikrein): 60 nM
- IC50 (human factor XIa): 82 nM

Compound: CCC(C(=O)Nc1ccc(C(=O)OC[C@H](N)C(=O)O)cc1)n1cc(OC)c(-c2cc(Cl)ccc2C#N)cc1=O (single isomer, unassigned) [Example 4, O-[4-({2-[4-(5-Chloro-2-cyanophenyl)-5-methoxy-2-oxopyridin-1(2H)-yl]butanoyl}amino)-benzoyl]-L-serine]
- IC50 (human plasma kallikrein): 92 nM
- IC50 (human factor XIa): 54 nM

Compound: CCC(C(=O)Nc1ccc(C(=O)OC[C@H](NC(=O)CN2CCCC2)C(=O)O)cc1)n1cc(OC)c(-c2cc(Cl)ccc2C#N)cc1=O (single isomer, unassigned) [Example 5, O-[4-({2-[4-(5-Chloro-2-cyanophenyl)-5-methoxy-2-oxopyridin-1(2H)-yl]butanoyl}amino)-benzoyl]-N-(pyrrolidin-1-ylacetyl)-L-serine]
- IC50 (human plasma kallikrein): 35 nM
- IC50 (human factor XIa): 60 nM

Compound: CCC(C(=O)Nc1ccc(C(=O)OC[C@H](NC(=O)C2CCCCN2C)C(=O)O)cc1)n1cc(OC)c(-c2cc(Cl)ccc2C#N)cc1=O (single isomer, unassigned) [Example 7]
- IC50 (human plasma kallikrein): 52 nM
- IC50 (human factor XIa): 91 nM

Compound: CCC(C(=O)Nc1ccc(C(=O)OC[C@H](NC(=O)C2(N(C)C)CC2)C(=O)O)cc1)n1cc(OC)c(-c2cc(Cl)ccc2C#N)cc1=O (single isomer, unassigned) [Example 8, O-[4-({2-[4-(5-Chloro-2-cyanophenyl)-5-methoxy-2-oxopyridin-1(2H)-yl]butanoyl}amino)-benzoyl]-N-{[1-(dimethylamino)cyclopropyl]carbonyl}-L-serine]
- IC50 (human plasma kallikrein): 55 nM
- IC50 (human factor XIa): 110 nM

Compound: CCC(C(=O)Nc1ccc(C(=O)OC[C@H](NC(=O)[C@H](C(C)C)N(C)C)C(=O)O)cc1)n1cc(OC)c(-c2cc(Cl)ccc2C#N)cc1=O (single isomer, unassigned) [Example 9, N,N-Dimethyl-L-valyl-O-[4-({2-[4-(5-chloro-2-cyanophenyl)-5-methoxy-2-oxopyridin-1(2H)-yl]butanoyl}amino)benzoyl]-L-serine]
- IC50 (human plasma kallikrein): 51 nM
- IC50 (human factor XIa): 63 nM

Compound: CCC(C(=O)Nc1ccc(C(=O)O[C@H]2CCN[C@@H]2C(=O)O)cc1)n1cc(OC)c(-c2cc(Cl)ccc2C#N)cc1=O (single isomer, unassigned) [Example 10]
- IC50 (human plasma kallikrein): 91 nM
- IC50 (human factor XIa): 14 nM

Compound: CCC(C(=O)Nc1ccc(C(=O)O[C@H]2CN[C@@H](C(=O)O)C2)cc1)n1cc(OC)c(-c2cc(Cl)ccc2C#N)cc1=O (single isomer, unassigned) [Example 11]
- IC50 (human plasma kallikrein): 280 nM
- IC50 (human factor XIa): 260 nM

Compound: CCC(C(=O)Nc1ccc(C(=O)OC[C@@H](C(=O)O)N2CCCC2)cc1)n1cc(OC)c(-c2cc(Cl)ccc2C#N)cc1=O (single isomer, unassigned) [Example 12]
- IC50 (human plasma kallikrein): 43 nM
- IC50 (human factor XIa): 26 nM

Compound: CCC(C(=O)Nc1ccc(C(=O)OC2CCN(C)CC2)cc1)n1cc(OC)c(-c2cc(Cl)ccc2C#N)cc1=O (single isomer, unassigned) [Example 13, 1-Methylpiperidin-4-yl 4-({2-[4-(5-chloro-2-cyanophenyl)-5-methoxy-2-oxopyridin-1(2H)-yl]butanoyl}amino)benzoate]
- IC50 (human plasma kallikrein): 120 nM
- IC50 (human factor XIa): 230 nM

- IC50 (human plasma kallikrein): 38 nM
Compound: CCC(C(=O)Nc1ccc(C(=O)OCCN2CCN(C)CC2)cc1)n1cc(OC)c(-c2cc(Cl)ccc2C#N)cc1=O (single isomer, unassigned) [Example 14, 2-(4-Methylpiperazin-1-yl)ethyl 4-({2-[4-(5-chloro-2-cyanophenyl)-5-methoxy-2-oxopyridin-1(2H)-yl]butanoyl}amino)benzoate]

Compound: CCC(C(=O)Nc1ccc(C(=O)OCCC2CCNCC2)cc1)n1cc(OC)c(-c2cc(Cl)ccc2C#N)cc1=O (single isomer, unassigned) [Example 15, 2-(Piperidin-4-yl)ethyl 4-({2-[4-(5-chloro-2-cyanophenyl)-5-methoxy-2-oxopyridin-1(2H)-yl]butanoyl}amino)benzoate]
- IC50 (human plasma kallikrein): 44 nM
- IC50 (human factor XIa): 230 nM

- IC50 (human plasma kallikrein): 40 nM
Compound: CCC(C(=O)Nc1ccc(C(=O)OCCN2CCCC2)cc1)n1cc(OC)c(-c2cc(Cl)ccc2C#N)cc1=O (single isomer, unassigned) [Example 16, 2-(Pyrrolidin-1-yl)ethyl 4-({2-[4-(5-chloro-2-cyanophenyl)-5-methoxy-2-oxopyridin-1(2H)-yl]butanoyl}amino)benzoate]

Compound: CCC(C(=O)Nc1ccc(C(=O)OC[C@H](NC(=O)[C@@H]2CCCN2)C(=O)O)cc1)n1cc(OC)c(-c2cc(Cl)ccc2C#N)cc1=O (stereo partly drawn) [Example 6, Prolyl-O-[4-({2-[4-(5-chloro-2-cyanophenyl)-5-methoxy-2-oxopyridin-1(2H)-yl]butanoyl}amino)-benzoyl]-L-serine]
- IC50 (human plasma kallikrein): 44 nM
- IC50 (human factor XIa): 65 nM
